The test system of assay [1] is C57BL/6J mice barrel cortex (layer 4). The assay is described as follows: Synaptic function test: TC EPSC potency and GABA/AMPA ratio in barrel cortex (layer 4). Type of assay: in vivo. The source says:
Eight weeks old male C57BL/6J mice were anesthetized with isoflurane during surgery. The mice were then be placed in a stereotaxic frame (RWD Life Science, China). The parietal and the frontal bones were exposed by a sagittal incision of the scalp at the midline from the level of the eyes to the occipital protuberance. A small burr hole was drilled after exposing the skull. The injection cannula was placed at the following coordinates: (Mouse: Bregma −3.30, lateral −1.50, and ventral 0.7 mm). Sterile saline solution (+/−a compound of the present disclosure) was perfused at a constant flow rate of 0.5 μL/h through the injection cannula using a mini-Os pump (DURECT Corporation ALZET Osmotic Pumps, CA). Implantation was done in layer 4 of the barrel cortex ipsilateral. To estimate extent of the diffusion of the injected compound in layer 4 barrel cortex during pump injection, methylene blue was first injected to stain the diffusion area. On average methylene blue diffused to […] away from the injection site (the total area of the barrel cortex region is about 1500 μm). Based on this analysis, the present inventors recorded from barrel cortex area.
2 mg of BnH12001 was dissolved in 800 ul of DMSO and prepared as a stock solution. For oral administration, BnH12001 DMSO stock:PEG400:Saline was mixed in a ratio of 5:55:40 and 200 μl/animal was administered. For the control group, a vehicle in which DMSO:PEG400:Saline was mixed in a 5:55:40 ratio was administered at 200 ul/animal. In the single drug administration test, the compound was administered once a day for about 11 to 12 days at a dose of 1 mg/kg. Dose response test was performed by administering the compound once a day for about 11 to 12 days at doses of 0.03, 0.1, 0.3, 1, 3, and 10 mg/kg. 5 mice were used for the compound administration group and the control group, respectively.
For TC or hippocampus slice preparation. 9 to 10 weeks-old male C57BL/6J mice were anesthetized with isoflurane. Then, the brain was rapidly cooled via transcardial perfusion with ice-cold sucrose-artificial cerebrospinal fluid (aCSF). The brain was removed and placed in ice-cold sucrose aCSF. Paracoronal slices were prepared at an angle of 50° relative to the midline on a ramp at an angle of 10°. Then, slices were incubated in aCSF at 35° C. for 30 minutes to recover. Slices were then incubated in aCSF at room temperature (23 to 25° C.) for 1 to 4 hours before being placed in the recording chamber for experiments. The standard aCSF contains saturated with 95% O2/5% CO2. The brain of the mouse was removed and cut into 400 μm at a 50° angle (mouse at a 55° angle) to attach the cut portion to the vibratome disc to be the bottom. Brain slice was incubated in 35° C. in aCSF solution for 30 minutes, or at RT in aCSF solution for 1 hour.
All electrophysiological experiments were conducted at 27 to 29° C. For electrophysiological experiments, electrodes with […] resistance were used and stimuli were applied to the ventral posteromedial nucleus (VPM) using a concentric bipolar electrode (FHC, Bowdoin, ME). The somatosensory cortex was identified by the presence of barrels under 4× magnification and differential interference contrast (DIC) optics, and by the ability to evoke short and constant latency field excitatory postsynaptic potentials (fEPSPs) by VPM stimulation. Whole-cell voltage-clamp recordings were made from stellate cells (SC) in layer IV of the somatosensory barrel cortex using infrared illumination and differential interference contrast (DIC) optics. The composition of whole cell recording solution is shown as follows:
Whole cell recordings were made using a multiclamp 700A (Molecular devices, Sunnyvale, CA) digitized at 10 kHz and filtered at 2 kHz. […]

Assay [2] has as its system APP/PS1 mice sensory cerebral cortex. The assay is described as follows: TC potency and GABA/AMPA ratio in sensory cortex of Alzheimer's animal model. Type of assay: in vivo. The method, then:
For intravenous injection, the tail vein injection method was used. […] In the drug injection test, the compound was administered once a day for about 11 to 13 days. 5 mice were used for the compound administration group and the control group, respectively.
For TC or hippocampus slice preparation. 9 to 10 weeks-old male C57BL/6J mice were anesthetized with isoflurane. Then, the brain was rapidly cooled via transcardial perfusion with ice-cold sucrose-artificial cerebrospinal fluid (aCSF). The brain was removed and placed in ice-cold sucrose aCSF. Paracoronal slices were prepared at an angle of 50° relative to the midline on a ramp at an angle of 10°. […]
For the minimal stimulation protocol (Potency), VB thalamic stimulation intensity was adjusted to find the lowest intensity that elicited a mixture of synaptic responses and failures. Failure rate was calculated as the number of failures/total number of trials. Potency was calculated as the mean EPSC peak amplitude excluding failures (see Chittajallu & Isaac, 2010, Emergence of cortical inhibition by coordinated sensory-driven plasticity at distinct synaptic loci, DOI: 10.1038/nn.2639; see Isaac et al., 1997, Silent Synapses during Development of Thalamocortical Inputs, https://doi.org/10.1016/S08966273((0)80267-6; and see Stevens & Wang, 1995, Facilitation and depression at single central synapses, DOI: 10.1016/08966273(95)90223-6). […]

The mark [3] stands for this setting: oral, 1 mg/kg, 8-week-old C57BL/6J mice.
Where [4] appears, read: Os pump, injected into layer 4 of barrel cortex, 3 μM, 2 weeks, 8-week-old C57BL/6J mice.

Here are results for 2 compounds from patent US20250188032A1, “NITROGEN-CONTAINING HETEROCYCLIC COMPOUNDS AND USES THEREOF” (BNH RESEARCH CO., LTD., priority 2022, published 2025).

With `C[C@@H]1CC[C@H](C(=O)O)CN1C(=O)Cc1ccc(F)cc1Cl` [BnH12001 enantiomer (3S,6R, 98%<), (3S,6R)-1-(2-(2-chloro-4-fluorophenyl)acetyl)-6-methylpiperidine-3-carboxylic acid], in assay [1] (setting [3]), the “Balance of excitation/inhibition (GABA/AMPA ratio)” value is listed as “maintaining the balance of excitation/inhibition”; the “Efficacy on TC synaptic potency compared among racemate and enantiomers” value is listed as “highest efficacy”; the “TC synaptic potency in the sensory cortex” value is on record as “increase the TC synaptic potency”. In addition, in assay [2], the “Balance of excitation/inhibition (GABA/AMPA ratio)” value is “maintaining the balance of excitation/inhibition” and the “Excitatory TC synaptic potency (TC potency)” value was “increased the excitatory TC synaptic potency”.

With `CC1CCC(C(=O)O)CN1C(=O)Cc1ccc(F)cc1Cl` (racemic) [BnH12001, 1-(2-(2-chloro-4-fluorophenyl)acetyl)-6-methylpiperidine-3-carboxylic acid], in assay [1] (setting [4]), the “Balance of excitation/inhibition (GABA/AMPA ratio)” value was “maintained” and the “Excitatory TC synaptic potency (TC potency)” value was “significantly increased”. In addition, in assay [1] (setting [3]), the “Balance of excitation/inhibition (GABA/AMPA ratio)” value is “maintaining the balance of excitation/inhibition” and the “TC synaptic potency in the sensory cortex” value was “increase the TC synaptic potency”. Also, the “TC EPSC potency in the layer 4 barrel cortex” value in assay [1] (orally-applied, 3 μM) was “significantly augmented”.
